Experimental data reported in PubChem BioAssay (NCI).
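Dose response: 5 concentrations. Exposure: 48 h. Format: 96-well plates. Endpoint: linear interpolation; highest concentration if not reached. GI50 is the concentration that inhibits growth by half. The concentration for full growth arrest is given as TGI.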

Assays:
Test in all cases: DTP human tumour cell line panel, 48 h
[1] = test system: SF-268 CNS
[2] = test system: NCI-H23 lung
[3] = test system: COLO 205 colon
[4] = test system: NCI-H226 lung
[5] = test system: HCT-116 colon
[6] = test system: HL-60(TB) leukemia
[7] = test system: BT-549 breast
[8] = test system: M14 melanoma
[9] = test system: ACHN renal
[10] = test system: UACC-257 melanoma
[11] = test system: K-562 leukemia
[12] = test system: SNB-19 CNS
[13] = test system: SW-620 colon
[14] = test system: 786-0 renal
[15] = test system: SK-MEL-2 melanoma
[16] = test system: SK-MEL-28 melanoma
[17] = test system: OVCAR-3 ovarian
[18] = test system: A549 NSCLC
[19] = test system: T-47D breast
[20] = test system: MALME-3M melanoma
[21] = test system: NCI/ADR-RES ovarian
[22] = test system: SNB-75 CNS
[23] = test system: KM12 colon
[24] = test system: HOP-92 NSCLC
[25] = test system: UACC-62 melanoma
[26] = test system: SK-OV-3 ovarian
[27] = test system: MDA-MB-435
[28] = test system: LOX IMVI melanoma
[29] = test system: HOP-62 NSCLC
[30] = test system: HCC-2998 colon
[31] = test system: HCT-15 colon
[32] = test system: RXF 393 renal
[33] = test system: HS 578T breast
[34] = test system: MDA-MB-231 breast
[35] = test system: SN12C renal
[36] = test system: RPMI-8226 leukemia
[37] = test system: NCI-H460 lung
[38] = test system: SK-MEL-5 melanoma
[39] = test system: U251 CNS
[40] = test system: MCF7 breast
[41] = test system: OVCAR-8 ovarian
[42] = test system: UO-31 renal
[43] = test system: SF-295 CNS
[44] = test system: OVCAR-4 ovarian
[45] = test system: SF-539 CNS
[46] = test system: OVCAR-5 ovarian
[47] = test system: A498 renal
[48] = test system: DU-145 prostate
[49] = test system: IGROV1 ovarian
[50] = test system: NCI-H522 lung
[51] = test system: HT29 colon
[52] = test system: PC-3 prostate
[53] = test system: CAKI-1 renal

O=C1CC(c2ccsc2)c2snc(-c3ccc(Cl)cc3)c2N1 (stereo unspecified)
GI50 [1]: 4.87 µM | TGI [1]: > 100 µM | GI50 [2]: 1.76 µM | TGI [2]: > 100 µM | GI50 [3]: 0.527 µM | TGI [3]: 2.57 µM | GI50 [4]: 7.55 µM | TGI [4]: > 100 µM | GI50 [5]: 0.515 µM | TGI [5]: > 100 µM | GI50 [6]: 1.11 µM | TGI [6]: 3.33 µM | GI50 [7]: 2.26 µM | TGI [7]: > 100 µM | GI50 [8]: 0.804 µM | TGI [8]: > 100 µM | GI50 [9]: 5.39 µM | TGI [9]: > 100 µM | GI50 [10]: 4.08 µM | TGI [10]: > 100 µM | GI50 [11]: 0.356 µM | TGI [11]: > 100 µM | GI50 [12]: 3.78 µM | TGI [12]: > 100 µM | GI50 [13]: 0.429 µM | TGI [13]: > 100 µM | GI50 [14]: 7.65 µM | TGI [14]: > 100 µM | GI50 [15]: 3.93 µM | TGI [15]: > 100 µM | GI50 [16]: 3.11 µM | TGI [16]: > 100 µM | GI50 [17]: 0.694 µM | TGI [17]: 4.78 µM | GI50 [18]: 0.626 µM | TGI [18]: > 100 µM | GI50 [19]: 0.537 µM | TGI [19]: > 100 µM | GI50 [20]: 2.72 µM | TGI [20]: > 100 µM | GI50 [21]: 0.364 µM | TGI [21]: 2.37 µM | GI50 [22]: 1.71 µM | TGI [22]: 9.71 µM | GI50 [23]: 0.385 µM | TGI [23]: > 100 µM | GI50 [24]: 3.87 µM | TGI [24]: 81.8 µM | GI50 [25]: 0.859 µM | TGI [25]: > 100 µM | GI50 [26]: 2.17 µM | TGI [26]: 12 µM | GI50 [27]: 0.26 µM | TGI [27]: 0.977 µM | GI50 [28]: 1 µM | TGI [28]: > 100 µM | GI50 [29]: 2.63 µM | TGI [29]: 35.2 µM | GI50 [30]: 1.99 µM | TGI [30]: > 100 µM | GI50 [31]: 0.489 µM | TGI [31]: > 100 µM | GI50 [32]: 3.49 µM | TGI [32]: 50.8 µM | GI50 [33]: 2.59 µM | TGI [33]: > 100 µM | GI50 [34]: 1.33 µM | TGI [34]: > 100 µM | GI50 [35]: 3.77 µM | TGI [35]: > 100 µM | GI50 [36]: 0.6 µM | TGI [36]: 5.44 µM | GI50 [37]: 0.581 µM | TGI [37]: > 100 µM | GI50 [38]: 0.404 µM | TGI [38]: 2.4 µM | GI50 [39]: 1.75 µM | TGI [39]: > 100 µM | GI50 [40]: 0.563 µM | TGI [40]: > 100 µM | GI50 [41]: 3.01 µM | TGI [41]: > 100 µM | GI50 [42]: 3.86 µM | TGI [42]: > 100 µM | GI50 [43]: 1.87 µM | TGI [43]: 19.7 µM | GI50 [44]: 5.6 µM | TGI [44]: > 100 µM | GI50 [45]: 2.9 µM | TGI [45]: > 100 µM | GI50 [46]: 5.92 µM | TGI [46]: > 100 µM | GI50 [47]: 1.09 µM | TGI [47]: 7.94 µM | GI50 [48]: 2.68 µM | TGI [48]: > 100 µM | GI50 [49]: 2.87 µM | TGI [49]: > 100 µM | GI50 [50]: 0.626 µM | TGI [50]: 13.5 µM | GI50 [51]: 0.4 µM | TGI [51]: > 100 µM | GI50 [52]: 2.05 µM | TGI [52]: > 100 µM | GI50 [53]: 1.03 µM | TGI [53]: > 100 µM
